The record followed here is US20120122730A1, “Methods for Quantitative Analyses of Kinase Inhibitor Selectivity Using Small Size Panels” (priority 2010, published 2012).

The test has as its system panel of 287 distinct human protein kinases, three lipid kinases, and 27 disease-relevant mutant variants. The test is described as follows: Weighted selectivity score from competition binding assays against a kinase panel. Conditions: Kd thresholds <100 nM, <1 μM, <3 μM weighted; panel of 317 assays; FIG. 7. As to the method:
In one embodiment, a kinase subset may be determined by using a computational method that can extract knowledge from large amounts of data from known cancer drug designs and find a subset of kinases. A first step in determining a kinase subset involves the use of data from competition binding assays where kinase inhibitors are evaluated against a panel of protein kinases. For each interaction, a quantitative dissociation constant (Kd) is needed.
In one embodiment, a quantitative description, called a weighted selectivity score, is developed for assessing kinome-wide compound reactivities by suitably coarse-graining the binding-affinity vector. […] The weighted selectivity score (normalized or not) is an unbiased measure that enables quantitative comparisons between compounds and the detailed differentiation and analysis of interaction patterns. […]
To validate a method of the present disclosure, data from a previous competition binding assays was used wherein 38 kinase inhibitors were evaluated against a panel of 287 distinct human protein kinases, three lipid kinases, and 27 disease-relevant mutant variants. […] Each compound was screened against the panel of 317 assays at a single concentration of 10 μM to identify candidate kinase targets, and for each interaction observed in this primary screen a quantitative dissociation constant was determined.

Take `COc1ccc(COc2ccc(Cc3cnc(N)nc3N)cc2OC)cc1` [GW-2580]: the “weighted selectivity score (overall score)” value is recorded as 3.5.
